The source of these data is patent publication US20070086956A1, “Method for accelerating the rate of mucociliary clearance” (BAYER AKTIENGESELLSCHAFT, priority 1998, published 2007).

Like-named read-outs stand apart in the source and are kept apart here.

One experiment deals with T1, human tissue kallikrein (Homo sapiens, UniProt P06870).
T1 construct: purchased Bayer, Germany
As to the kind of experiment: Inhibition of human tissue kallikrein, Ki. It is filed as biochemical. Conditions: Table 3; Human Tissue Kallikrein (0.35 nM); PFR-AMC (10 μM).

A further experiment concerns the target T2, human plasmin (Homo sapiens, UniProt P00747).
T2 construct: purchased Sigma (St. Louis, Mo.)
As to the kind of experiment: Inhibition of human plasmin, Ki. The class given is biochemical. Conditions: Table 3; Human Plasmin (50 pM); GPK-AMC (0.5 mM).

For experiment [1], the target named is T3, human neutrophil elastase (Homo sapiens, UniProt P08246).
T3 sequence (P08246 30-267): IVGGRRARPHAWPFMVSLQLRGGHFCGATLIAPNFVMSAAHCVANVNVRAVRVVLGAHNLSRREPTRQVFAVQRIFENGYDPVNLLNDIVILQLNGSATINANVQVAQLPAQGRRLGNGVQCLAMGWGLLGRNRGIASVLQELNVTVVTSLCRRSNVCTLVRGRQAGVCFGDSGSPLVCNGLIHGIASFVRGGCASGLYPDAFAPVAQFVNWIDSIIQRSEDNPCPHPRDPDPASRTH
Kind of experiment: Inhibition of human neutrophil elastase, Ki (Dixon plots). It is filed as biochemical. Conditions: Table 3; Human Neutrophil Elastase (19 nM). On the procedure: […] Ki values were determined from Dixon plots of the form 1/V versus performed at two different substrate concentrations (Dixon et al., 1979).

Another experiment deals with T4, human plasma kallikrein (Homo sapiens, UniProt P03952).
T4 construct: purchased Sigma (St. Louis, Mo.)
As to the kind of experiment: Inhibition of human plasma kallikrein, Ki. It is filed as biochemical.

For another experiment, the target named is T5, human urokinase (Homo sapiens, UniProt P00749).
T5 construct: purchased Sigma
As to the kind of experiment: Inhibition of human urokinase, Ki. It is filed as biochemical. Conditions: Table 3, GGR-AMC (0.7 mM).

A further experiment addresses T6, human factor Xa (Homo sapiens, UniProt P00742).
T6 construct: purchased American Diagnostica, Inc, Greenwich, Conn
As to the kind of experiment: Inhibition of human factor Xa. The class given is biochemical. As to conditions: Table 3; factor Xa (0.87 nM); LGR-AMC (0.6 mM).

Another experiment has as its target Bovine chymotrypsin (Bos taurus, UniProt P00766). As to the kind of experiment: Inhibition of chymotrypsin, Ki. It is filed as biochemical.
In experiment [2] the test system is guinea pig trachea. As to conditions: 10 mM, 20 minute aerosol; 15 minutes after; n=8 (Newton et al 1998); cited from earlier work.
In experiment [3] the test system is guinea pig trachea. As to the kind of experiment: Tracheal mucus velocity (TMV) in the guinea-pig. The class given is in vivo. How it is done: The aim of this study was to investigate the effect of the Kunitz family serine protease inhibitor Bikunin on guinea-pig tracheal mucus velocity 1.5 hours post treatment. This agent was delivered into the cephalad trachea by topical instillation. TMV was monitored 1.5 hours later for 60 mins. The procedure used in this Example is described in Newton et al. in “Cila, Mucus and Mucociliary Interactions,” Ed., Baum, G. L. et al., Marcel Dekker, New York, 1998; Newton et al., Ped. Pulm. S17, Abs. 364, 1998). […]
TMV was monitored using a lead collimated miniature Beta particle detector probe arranged to detect the radioactivity emitted from an injected aliquot of ^32P-labelled Saccharomyces cerevisiae as it was transported on the tracheal mucociliary layer of an anaesthetized guinea pig (Newton and Hall 1998) FIG. 16(a) illustrates the arrangement of the syringe and beta probe. FIG. 16(b) illustrates the counts detected by the probe as the ^32P-labelled S. cerevisiae is transported along the tracheal mucociliary layer. […]
The aim of this comparative study was to investigate the effect of hypertonic saline (14.4%×5 min) on guinea-pig tracheal mucus velocity. […] TMV was monitored immediately and every 15 minutes for 30 minutes. […]

The subject of the next experiment is diseased patients. Conditions: inhalation; diseased patients (Robinson et al 1997; App et al 1990); cited from earlier work.
In experiment [4] the test system is human CF bronchial epithelial cells. As to the kind of experiment: Short circuit current (Isc) in cultured human cystic fibrosis bronchial epithelial cells. The class given is cell-based.
Procedure: HBE cells were isolated from CF patient lung transplant tissue and grown in collagen coated flasks for one week. The cells were then passaged and seeded onto collagen coated Costar Transwell filters (0.33 cm2) and grown in DMEM/F12 media supplemented with 2% Ultroser G. Cells were grown at an air liquid interface and used 2 to 4 weeks after seeding:
Cells on the Transwell filters were mounted in modified Costar Ussing chambers and studied under Isc conditions. […] Isc was recorded for 100 minutes and then the apical bath fluid was exchanged with fresh buffer. Trypsin (100 BAEE units/mL) was added to the apical side and Isc recorded for 10 minutes. Amiloride (10 uM) was then added to the apical side and Isc was recorded for a further 10 minutes.
HBE cells were isolated from CF patient lung transplant tissue and grown in collagen coated flasks for one week. The cells were then passaged and seeded onto collagen coated Costar Transwell filters (0.33 cm^2) and grown in DMEM/F12 media supplemented with 2% Ultroser G. Cells were grown at an air liquid interface and used 2 to 4 weeks after seeding.
Cells on the Transwell filters were mounted in modified Costar Ussing chambers and studied under Isc conditions. […] Isc was recorded for 90 minutes and then amiloride (10 uM) was added and Isc was recorded for a further 10 minutes. The apical bath fluid was then exchanged with fresh buffer, and Isc was recorded for a further 15 minutes. Trypsin (1 uM) was added to the apical side and Isc recorded for 15 minutes. Amiloride (10 uM) was then added to the apical side and Isc was recorded for a further 10 minutes.
The subject of another experiment is A6 cells. As to conditions: exposure of the apical membrane (Vallet et al 1997; Chraibi et al 1998), cited from earlier work.
The test system of experiment [5] is human bronchial epithelial cell (HBE). As to the kind of experiment: Short circuit current (Isc) in cultured human bronchial epithelial (HBE) cells, Ussing chamber. It is filed as cell-based. Conditions: for sodium current: 0.5 to 5 ug/mL (0.5, 1.5 and 5 ug/mL), 90 minute period.
Procedure: Tertiary HBE cell monolayer grown to confluence were mounted in modified Ussing chambers, immersed in Krebs buffer (KBR) solution and bubbled with 95% O2/5% CO2 warmed to 37 C.
Cells were left to equilibrate for 20 minutes before calibrating for background noise and fluid resistance. Transepithelial potential difference was then clamped to 0 mV using a WPI EVC 4000 voltage clamp. Ag/AgCl electrodes were used to monitor Isc. […] Once a response to amiloride was seen, it was washed out with KBR solution. […] 90 minutes following agent treatment, amiloride (10 uM) was added. Once the current was stable forskolin (10 uM) and then bumetanide (100 uM) was added.
Tertiary HBE cell monolayers grown to confluence were mounted in modified Ussing chambers, immersed in Krebs buffer (KBR) solution and bubbled with 95% O2/5% CO2 warmed to 37 C.
Cells were left to equilibrate for 20 minutes before calibrating for background noise and fluid resistance. Transepithelial potential difference was then clamped to 0 mV using a WPI EVC 4000 voltage clamp. Ag/AgCI electrodes were used to monitor Isc. […] Once a response to amiloride was seen, it was washed out with KBR solution. […] 90 minutes following agent treatment, amiloride (10 uM) was added.
The next experiment concerns allergic sheep. As to conditions: cited from earlier work.

T4 sequence (P03952 391-638 limits assumed): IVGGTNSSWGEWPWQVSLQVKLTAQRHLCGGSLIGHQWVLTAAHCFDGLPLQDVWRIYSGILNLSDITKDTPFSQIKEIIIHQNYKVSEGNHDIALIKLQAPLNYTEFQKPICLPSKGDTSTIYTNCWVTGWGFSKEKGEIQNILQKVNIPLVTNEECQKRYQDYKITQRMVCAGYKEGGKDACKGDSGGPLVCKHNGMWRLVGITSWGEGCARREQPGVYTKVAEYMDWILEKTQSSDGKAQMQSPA
T4 sequence (P03952 20-390 partner limits assumed): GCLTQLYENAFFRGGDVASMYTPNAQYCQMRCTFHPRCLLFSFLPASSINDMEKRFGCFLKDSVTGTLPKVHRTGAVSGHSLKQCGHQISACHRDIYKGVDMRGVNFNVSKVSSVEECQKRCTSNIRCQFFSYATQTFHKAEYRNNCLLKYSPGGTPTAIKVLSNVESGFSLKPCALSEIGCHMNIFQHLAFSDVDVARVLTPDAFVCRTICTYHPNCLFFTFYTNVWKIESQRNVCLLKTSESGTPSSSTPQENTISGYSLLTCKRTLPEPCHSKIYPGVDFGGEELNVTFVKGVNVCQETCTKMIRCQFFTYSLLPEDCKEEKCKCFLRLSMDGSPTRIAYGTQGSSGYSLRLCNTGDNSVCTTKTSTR
T6 sequence (P00742 235-488 limits assumed): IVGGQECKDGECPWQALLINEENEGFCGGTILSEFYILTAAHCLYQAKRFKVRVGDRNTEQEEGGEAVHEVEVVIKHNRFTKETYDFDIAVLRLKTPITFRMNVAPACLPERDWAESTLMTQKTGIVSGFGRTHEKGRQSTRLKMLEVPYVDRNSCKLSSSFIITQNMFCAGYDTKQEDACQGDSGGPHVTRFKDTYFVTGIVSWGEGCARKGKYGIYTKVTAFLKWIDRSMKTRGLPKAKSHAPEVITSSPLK
T6 sequence (P00742 41-179 partner limits assumed): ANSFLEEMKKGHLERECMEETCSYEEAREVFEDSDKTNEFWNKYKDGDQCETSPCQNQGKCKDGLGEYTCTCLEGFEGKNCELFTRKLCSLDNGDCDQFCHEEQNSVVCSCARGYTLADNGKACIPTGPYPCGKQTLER
T1 sequence (P06870 25-262): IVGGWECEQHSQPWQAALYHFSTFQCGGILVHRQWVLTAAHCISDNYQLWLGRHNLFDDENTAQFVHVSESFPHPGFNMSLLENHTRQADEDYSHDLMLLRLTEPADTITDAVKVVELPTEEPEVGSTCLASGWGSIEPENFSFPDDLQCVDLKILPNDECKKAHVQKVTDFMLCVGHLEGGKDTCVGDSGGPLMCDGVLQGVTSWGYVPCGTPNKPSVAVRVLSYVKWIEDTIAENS
T2 sequence (P00747 581-810 limits assumed): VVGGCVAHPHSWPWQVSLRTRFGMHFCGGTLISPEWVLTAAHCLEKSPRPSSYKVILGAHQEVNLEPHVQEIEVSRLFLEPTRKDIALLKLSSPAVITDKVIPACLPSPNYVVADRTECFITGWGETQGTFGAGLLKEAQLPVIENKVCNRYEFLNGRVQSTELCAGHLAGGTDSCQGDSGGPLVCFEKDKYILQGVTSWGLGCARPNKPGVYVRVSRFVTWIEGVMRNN
T2 sequence (P00747 97-580 partner limits assumed): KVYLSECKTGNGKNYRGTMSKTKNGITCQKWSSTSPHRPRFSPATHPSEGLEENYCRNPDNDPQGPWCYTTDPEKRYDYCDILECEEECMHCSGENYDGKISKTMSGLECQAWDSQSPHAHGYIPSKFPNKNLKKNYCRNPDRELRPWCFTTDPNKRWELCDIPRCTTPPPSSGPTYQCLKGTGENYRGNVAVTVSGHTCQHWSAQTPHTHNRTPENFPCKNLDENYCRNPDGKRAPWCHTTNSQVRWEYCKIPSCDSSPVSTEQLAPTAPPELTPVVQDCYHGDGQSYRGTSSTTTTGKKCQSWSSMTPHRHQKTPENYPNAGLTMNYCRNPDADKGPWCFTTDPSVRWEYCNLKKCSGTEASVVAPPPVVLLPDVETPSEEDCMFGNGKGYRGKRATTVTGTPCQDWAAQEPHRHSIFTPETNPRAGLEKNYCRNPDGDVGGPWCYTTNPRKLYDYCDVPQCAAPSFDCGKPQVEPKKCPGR
Procedure for human factor Xa: (§1) After 5 min. at 37° C., 30 ul of 20 mM LGR-AMC (Sigma) was added and the change in fluorescence monitored. […] After 5 min. at 37° C., 35 ul of 20 mM GGR-AMC (Sigma) was added and the change in fluorescence monitored.
Procedure for human plasma kallikrein: (§2) After 5 min. at 37° C., 15 μl of 2 mM GPK-AMC was added and the change in fluorescence (as above) was monitored. […] After 5 min. incubation at 37° C., 25 μl of 20 mM GPK-AMC was added and the change in fluorescence monitored. […] After 5 min. at 37° C. 15 μl of 20 mM PFR-AMC was added and the change in fluorescence monitored.
(§3) After 30 min. incubation at 37° C., 25 μl of 20 mM GPK-AMC was added and the change in fluorescence monitored. […] After 30 min. at 37° C., 5 μl of 20 mM PFR-AMC was added and the change in fluorescence monitored.
Procedure for human plasmin: as §2, §3
Procedure for human tissue kallikrein: After 5 min. at 37° C., 5 ul of 2 mM PFR-AMC was added achieving 10 uM final and the change in fluorescence monitored. The Km for PFR-AMC with human tissue kallikrein under the conditions employed was 5.7 uM.
After 5 min. at 37° C., 5 μl of 2 mM PFR-AMC was added and the change in fluorescence monitored.
After 5 min. at 37° C., 5 ul of 2 mM PFR-AMC was added achieving 10 uM final concentration and the change in fluorescence monitored.
Procedure for human urokinase: as §1

In general, Ki refers to the dissociation constant of the complex between target and ligand, obtained from inhibition or displacement. In the case of `CC[C@H](C)[C@@H]1NC(=O)[C@H](Cc2ccccc2)NC(=O)[C@H](CC(N)=O)NC(=O)[C@H](CC(N)=O)NC(=O)[C@@H]2CSSC[C@@H]3NC(=O)[C@H](C)NC(=O)[C@H](CCC(=O)O)NC(=O)[C@H](CCC(=O)O)NC(=O)[C@H](CO)NC(=O)[C@H](CCCNC(=N)N)NC(=O)[C@H](Cc4ccc(O)cc4)NC(=O)[C@H](CO)NC(=O)[C@H](CC(N)=O)NC(=O)[C@H](CCCCN)NC(=O)[C@H](CC(N)=O)NC(=O)CNC(=O)[C@H](CCCNC(=N)N)NC(=O)[C@H](CSSC[C@H](NC(=O)[C@@H]4CCCN4C(=O)CNC(=O)[C@H]([C@@H](C)O)NC(=O)[C@H](C(C)C)NC(=O)[C@H](C)NC(=O)[C@H](CC(N)=O)NC(=O)[C@H](C)NC(=O)[C@H]([C@@H](C)O)NC(=O)[C@@H](NC(=O)[C@H](Cc4ccc(O)cc4)NC(=O)[C@H](CCC(=O)O)NC(=O)[C@H](CCC(=O)O)NC(=O)[C@@H](N)Cc4ccc(O)cc4)CSSC[C@@H](C(=O)N[C@@H](Cc4ccccc4)C(=O)N[C@@H](CCCNC(=N)N)C(=O)N[C@@H](CCC(N)=O)C(=O)O)NC(=O)[C@H](CCCNC(=N)N)NC(=O)[C@H](CC(C)C)NC(=O)[C@H](CCSC)NC3=O)C(=O)N[C@@H](CCCNC(=N)N)C(=O)N[C@@H](C)C(=O)N[C@@H](CO)C(=O)N[C@@H](Cc3ccccc3)C(=O)N3CCC[C@H]3C(=O)N[C@@H](CCCNC(=N)N)C(=O)N[C@@H](Cc3c[nH]c4ccccc34)C(=O)N[C@@H](Cc3ccc(O)cc3)C(=O)N[C@@H](Cc3ccccc3)C(=O)N[C@@H](CC(=O)O)C(=O)N[C@@H](C(C)C)C(=O)N[C@@H](CCC(=O)O)C(=O)N[C@@H](CCCNC(=N)N)C(=O)N[C@@H](CC(N)=O)C(=O)N[C@@H](CO)C(=O)N2)NC(=O)CNC(=O)CNC(=O)[C@H](Cc2ccc(O)cc2)NC1=O` [Bikunin (102-159)], the inhibitory constant (Ki) on human tissue kallikrein is 0.13 nM; on human plasmin, 1.8 nM; in experiment [1] it was 323 nM; on human plasma kallikrein (Table 3, Human Plasma Kallikrein (2.5 nM), PFR-AMC (0.3 mM)) it was 0.3 nM; on human plasma kallikrein (Table 4A, Human Plasma Kallikrein (2.5 nM)), 0.3 nM; at human plasma kallikrein (Table 4B, Human Plasma Kallikrein ([…] nM)), 0.7 nM. In addition, the inhibition constant Ki on human urokinase stood at 11000 nM; at human factor Xa, 274 nM; on Bovine chymotrypsin (Table 3, Chymotrypsin (5 nM), AAPF-pNA (0.08 mM)) it was 0.24 nM; at Bovine chymotrypsin (Table 4A, Bovine chymotrypsin (5 nM)) it was 0.2 nM.

As to `N=C(N)NC(=O)c1nc(Cl)c(N)nc1N` [amiloride, reference compound], the TMV was 8.1±0.3 mm.min^−1 with guinea pig trachea [2] and “statistically significant increase in TMV” with guinea pig trachea [3] (10 mM x 20 mins aerosol, 15 minutes after aerosol, FIG. 19). The MCC result in the experiment with diseased patients is “significantly increase MCC”. Further, in [4] (10 uM, apical, after trypsin), the Isc entry is listed as “inhibited the majority of the current”.

For Aprotinin, the “transepithelial Na+ transport” value is recorded as “reduce transepithelial Na^+ transport” with A6 cells and “reduced transepithelial Na^+ transport” with A6 cells (listed as aprotinin). Further, the Isc result in experiment [4] (20 ug/mL, 90 minutes after apical application) is on record as “decreases sodium current”; in experiment [4] (20 ug/mL, 90 minutes after apical application, listed as aprotinin), “inhibited Isc”; in experiment [4] (1 mg/mL in PBS, over a 100 minute period, FIG. 21), “inhibited Isc”. The “sodium short circuit current” value in [5] (5 ug/mL, FIG. 20) is given as “decrease sodium short circuit current”.

For “Des Pro2-Ser10-Arg15-Asp24-Thr26-Glu31-Asn41-Glu53-Aprotinin [Aprotinin double mutein]”, the TMV result in the experiment on guinea pig trachea [3] (10 ug, relative to HBSS, 1.5 to 2.5 hours following administration, FIG. 26) was “increased TMV”. In addition, the sodium current result in experiment [5] (FIG. 20) was “dose dependently inhibited sodium current”; in [5] (FIG. 20, listed as aprotinin double mutein) it was “decrease sodium short circuit current”.

As for “α1-PI: serpin-family serine protease inhibitor alpha(1)-protease inhibitor”, the “antigen-induced reduction in TMV” value in the experiment on allergic sheep (10 mg given 30 min before or 1 h after antigen challenge, 6 h after challenge) is listed as “attenuated antigen-induced reduction in TMV”. The “baseline TMV” value in the experiment with allergic sheep (administered on its own (no antigen challenge), over a 6 h period) is given as “no effect on baseline TMV”. In addition, in the experiment with allergic sheep (given 6 h after antigen challenge, at 24 h after challenge), the “antigen-induced fall in TMV” value is listed as “significant reversal of the antigen-induced fall in TMV”. Also, in [5] (50 ug.ml−1, normal HBE cells, further study), the “effect on Na+ Isc” value was “without a significant effect”.
